Data as given in article PMC6783941, “Synthesis of Ring II/III Fragment of Kanamycin: A New Minimum Structural Motif for Aminoglycoside Recognition” (Antibiotics, 2019).

Molecular target: T1, ANT-(4′) (Staphylococcus aureus, UniProt P05057)
T1 construct: gene knt; pET plasmid pET-ANT-(4′) in E. coli BL21 (printed for MIC strains)
Experiment: thermal shift, SYPRO Orange
Format: binding
Settings: Tris 10 mM pH 8.0, 0.2 mM NaCl; protein 4.4 µM and ligand 10 µM solutions mixed; blank Tm 58 ± 0.1
Excerpt: thermal shift, SYPRO Orange on ANT-(4′)

T1 sequence (P05057 whole entry): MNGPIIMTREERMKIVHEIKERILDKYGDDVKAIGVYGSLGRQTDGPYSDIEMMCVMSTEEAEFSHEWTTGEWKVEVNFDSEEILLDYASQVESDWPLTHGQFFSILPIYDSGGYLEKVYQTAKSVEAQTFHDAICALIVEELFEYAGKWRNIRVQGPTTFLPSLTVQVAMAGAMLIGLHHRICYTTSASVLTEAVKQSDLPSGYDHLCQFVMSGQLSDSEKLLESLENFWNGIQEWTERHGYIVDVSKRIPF

SMILES	1 [°C]	4 [°C]
NC[C@H]1O[C@H](O[C@H]2[C@H](O)[C@@H](O[C@H]3O[C@H](CO)[C@@H](O)[C@H](N)[C@H]3O)[C@H](N)C[C@@H]2N)[C@H](O)[C@@H](O)[C@@H]1O [compound 1, Kanamycin A]	61.5 ± 0.1	
NC[C@H]1O[C@H](O[C@H]2[C@H](O)[C@@H](O)[C@H](N)C[C@@H]2N)[C@H](N)[C@@H](O)[C@@H]1O [compound 4, 4-O-(2,6-di-Deoxy-α-D-2,6-di-amine-glucopyranosyl)-2-deoxy-streptamine]		61 ± 0.1
